Target: Mushroom tyrosinase (Agaricus bisporus, UniProt O42713+Q00024+C7FF04+C7FF05)
Experiment: Inhibition of mushroom tyrosinase […] measured at 60 secs interval for 25 times

Structure (SMILES) | IC50
O=C(O)c1ccc(-c2ccccc2)cc1 | 63.24 µM
COc1ccc(-c2ccc(C(=O)O)cc2)cc1 | 15.3 µM
O=C(O)c1cccc(-c2ccccc2)c1 | 6.97 µM
O=C(O)c1ccccc1-c1ccccc1 | > 100 µM
COc1ccc(-c2cccc(C(=O)O)c2)cc1 | 15.3 µM
O=C(O)c1ccccc1-c1ccc(O)cc1 | 100.18 µM
O=C(O)c1cccc(-c2ccc(O)cc2)c1 | 10.59 µM
COc1ccc(-c2ccccc2C(=O)O)cc1 | > 100 µM
O=C(O)c1ccc(-c2ccc(O)cc2)cc1 | 14.7 µM
